Consider 1 compound from patent US20010029636A1, “Hair bleaching and colouring compositions” (priority 1999, published 2001).

The nature of this assay: Cuticle abrasion method after bleaching of hair switches. The settings on record: solution 2 versus solution 1. Here is the method: The bleaching solutions 1 and 2 were each divided into three parts A, B and C. A was adjusted to pH 9.7, B to pH 10.1 and C to pH 10.5. Each solution was adjusted to the required pH with ammonium hydroxide (ex sigma, 28.1% active). The six solutions were each dosed (1.6 ml/g hair) onto a separate Spanish hair switch (8 g, 8″, ex Hugo Royer Hair Suppliers) in a disposable petri dish using an automatic pipette. Each switch was then agitated for 90 sec using a spoon ended plastic spatula. […] Each switch was then rinsed and left to dry naturally. Step 3: Cuticle Abrasion Method This method provides a measure of the extent of hair damage following the bleaching step. […] Rinse and repeat. The base wash used is 12% SLES, 2% CAPB in water. Dry them overnight. […] Record the initial weight of the hair. Add 200 ml of distilled water to the blender, making sure that the hair is covered with water. […] Transfer the liquid to a fresh tube. Wash the blender and add this, to the tube, as well. Pour the supernatant in 4×50 ml centrifuge tubes and centrifuge at 4300 rpm for 10 mins, 22° C. Pour the pellet on the filters, wash the tube and add this as well. Transfer the supernatant to centrifuge tubes and centrifuge at 4300 rpm for 10 min. Transfer the pellet to a beaker, wash the tube 2-3 times and top with water until 50 ml. Freeze them until solid. Freeze dry them for 24 hours in Modulyo freeze drier. Once dry, weigh amount of cuticle recovered. Final measure is calculated as follows: […] This measure provides the % weight of cuticle abraded from the hair fibres which reflects the state of damage of the hair tested. Thus the greater amount of cuticle recovered the more damaged the tested hair.

On to `CC(C)CCC[C@@H](C)[C@H]1CC[C@H]2[C@@H]3CC=C4C[C@@H](O)CC[C@]4(C)[C@H]3CC[C@]12C` [cholesterol], for which the “% reduction in damage of hair when cholesterol present” value worked out at 3.95% (pH 9.7), 12.211% (pH 10.1) and 30.902% (pH 10.5).
